According to US9249125B2, “Pyrazole derivatives as p38 MAP inhibitors” (RESPIVERT LIMITED, priority 2012, dated 2016):
pEC50, pIC50: −log10 of the molar value.

Tests used:
[1] = target: p38 MAPKα (Homo sapiens (Human), UniProt Q16539); assay: p38 MAPKα enzyme inhibition (FRET, Z-LYTE); assay type: biochemical
Experimental: (§1) The enzyme inhibitory activities of compounds disclosed herein are determined by FRET using synthetic peptides labelled with both donor and acceptor fluorophores (Z-LYTE, Invitrogen Ltd., Paisley, UK).
The inhibitory activities of test compounds against the p38 MAPKα isoform (MAPK14: Invitrogen), are evaluated indirectly by determining the level of activation/phosphorylation of the down-stream molecule, MAPKAP-K2. The p38 MAPKα protein (80 ng/mL, 2.5 μL) is mixed with the test compound (2.5 μL of either 4 μg/mL, 0.4 μg/mL, 0.04 μg/mL or 0.004 μg/mL) for 2 hr at RT. […] The mixture is incubated for 1 hr at RT. Development reagent (protease, 5 μL) is added for 1 hr prior to detection in a fluorescence microplate reader (Varioskan® Flash, ThermoFisher Scientific).
(§2) In all cases, the site-specific protease cleaves non-phosphorylated peptide only and eliminates the FRET signal. Phosphorylation levels of each reaction are calculated using the ratio of coumarin emission (donor) over fluorescein emission (acceptor), for which low ratios indicate high phosphorylation and high ratios indicate low phosphorylation levels.

[2] = target: cSrc (Homo sapiens (Human), UniProt P12931); assay: c-Src enzyme inhibition (FRET, Z-LYTE); assay type: biochemical
Sequence of cSrc (P12931 whole entry, looked up): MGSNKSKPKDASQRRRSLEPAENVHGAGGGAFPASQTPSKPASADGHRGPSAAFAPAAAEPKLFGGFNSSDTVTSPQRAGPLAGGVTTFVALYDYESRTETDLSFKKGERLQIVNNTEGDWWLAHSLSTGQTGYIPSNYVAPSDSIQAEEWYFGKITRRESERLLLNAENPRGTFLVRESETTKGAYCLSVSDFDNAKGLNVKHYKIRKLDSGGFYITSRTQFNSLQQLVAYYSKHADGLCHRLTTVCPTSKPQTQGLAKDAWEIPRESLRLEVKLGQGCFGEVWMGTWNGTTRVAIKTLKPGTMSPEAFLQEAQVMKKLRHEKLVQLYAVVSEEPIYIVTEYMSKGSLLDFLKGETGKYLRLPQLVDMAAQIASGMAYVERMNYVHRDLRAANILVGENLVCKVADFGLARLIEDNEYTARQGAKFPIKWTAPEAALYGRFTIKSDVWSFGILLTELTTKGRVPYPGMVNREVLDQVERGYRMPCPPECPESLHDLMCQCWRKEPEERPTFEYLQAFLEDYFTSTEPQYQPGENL
Experimental: as §1
(§3) The relevant enzyme (3000 ng/mL or 2000 ng/mL respectively, 2.5 μL) is incubated with the test compound (either 4 μg/mL, 0.4 μg/mL, 0.04 μg/mL, or 0.004 μg/mL, 2.5 μL each) for 2 hr at RT. The FRET peptides (8 μM, 2.5 μL), and appropriate ATP solutions (2.5 μL, 800 μM for c-Src, and 60 μM ATP for Syk) are then added to the enzymes/compound mixtures and incubated for 1 hr. Development reagent (protease, 5 μL) is added for 1 hr prior to detection in a fluorescence microplate reader (Varioskan® Flash, ThermoFisher Scientific).
as §2

[3] = target: Syk (Homo sapiens (Human), UniProt P43405); assay: Syk enzyme inhibition (FRET, Z-LYTE); assay type: biochemical
Experimental: as §1, §3, §2

[4] = target: GSK3α (Homo sapiens (Human), UniProt P49840); assay: GSK 3α enzyme inhibition (FRET, Z-LYTE); assay type: biochemical
Sequence of GSK3α (P49840 whole entry): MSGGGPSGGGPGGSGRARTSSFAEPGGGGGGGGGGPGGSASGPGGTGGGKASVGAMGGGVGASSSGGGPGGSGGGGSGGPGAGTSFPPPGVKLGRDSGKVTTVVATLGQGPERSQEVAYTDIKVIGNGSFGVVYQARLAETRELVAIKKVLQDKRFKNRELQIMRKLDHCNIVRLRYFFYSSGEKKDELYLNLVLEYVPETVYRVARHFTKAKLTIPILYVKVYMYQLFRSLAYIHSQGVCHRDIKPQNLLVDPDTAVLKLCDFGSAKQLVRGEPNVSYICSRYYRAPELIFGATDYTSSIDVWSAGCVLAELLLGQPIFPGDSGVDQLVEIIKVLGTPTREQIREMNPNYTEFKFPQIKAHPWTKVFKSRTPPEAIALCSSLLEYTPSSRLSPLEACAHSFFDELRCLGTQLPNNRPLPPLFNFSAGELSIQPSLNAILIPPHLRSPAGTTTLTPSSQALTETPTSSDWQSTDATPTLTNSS
Experimental: as §1
The inhibitory activities of compounds of the invention against the GSK 3α enzyme isoform (Invitrogen), are evaluated by determining the level of activation/phosphorylation of the target peptide. The GSK3-α protein (500 ng/mL, 2.5 μL) is mixed with the test compound (2.5 μL at either 4 μg/mL, 0.4 μg/mL, 0.04 μg/mL, or 0.004 μg/mL) for 2 hr at RT. The FRET peptide (8 μM, 2.5 μL), which is a phosphorylation target for GSK3α, and ATP (40 μM, 2.5 μL) are then added to the enzyme/compound mixture and the resulting mixture incubated for 1 hr. Development reagent (protease, 5 μL) is added for 1 hr prior to detection in a fluorescence microplate reader (Varioskan® Flash, ThermoFisher Scientific).
as §2

[5] = test system: LPS-induced TNFα release in d-U937 cells; assay: LPS-induced TNFα release in d-U937 cells; assay type: cell-based; conditions: Homo sapiens, dU937, relative to 10 μg/mL BIRB796, read-out: LPS Induced Release of Cytokine in d-937 Cells TNFα REC50
Experimental: (§4) U937 cells, a human monocytic cell line, are differentiated into macrophage-type cells by incubation with PMA (100 ng/mL) for 48 to 72 hr. Cells are pre-incubated with final concentrations of test compound for 2 hr and are then stimulated with LPS (0.1 μg/mL) (from E. coli: O111:B4, Sigma) for 4 hr. The supernatant is collected for determination of TNFα and IL-8 concentrations by sandwich ELISA (Duo-set, R&D systems). […] The relative 50% effective concentration (REC50) is determined from the resultant concentration-response curve. The inhibition of IL-8 production is calculated at each concentration of test compound by comparison with vehicle control. […] (b) LPS-Induced TNFα/IL-8 Release in PBMC Cells

[6] = test system: LPS-induced IL-8 release in d-U937 cells; assay: LPS-induced IL-8 release in d-U937 cells; assay type: cell-based; conditions: Homo sapiens, dU937, read-out: LPS Induced Release of Cytokine in d-937 Cells IL-8 IC50
Experimental: as §4

[7] = test system: Poly I:C-induced ICAM-1 expression in BEAS2B cells; assay: Poly I:C-induced ICAM-1 expression in BEAS2B cells; assay type: cell-based; conditions: Homo sapiens, BEAS-2B, read-out: Poly IC induced ICAM1 in BEAS2B IC50
Experimental: Poly I:C is used in these studies as a simple, RNA virus mimic. Poly I:C-Oligofectamine mixture (1 μg/mL Poly I:C, ±2% Oligofectamine, 25 uL) (Invivogen Ltd., San Diego, Calif., and Invitrogen, Carlsbad, Calif., respectively) is transfected into BEAS2B cells (human bronchial epithelial cells, ATCC). Cells are pre-incubated with final concentrations of test compounds for 2 hr and the level of ICAM1 expression on the cell surface is determined by cell-based ELISA. At a time point 18 hr after poly I:C transfection, cells are fixed with 4% formaldehyde in PBS (100 μL) and then endogenous peroxidase is quenched by the addition of washing buffer (100 μL, 0.05% Tween in PBS: PBS-Tween) containing 0.1% sodium azide and 1% hydrogen peroxide. Cells are washed with wash-buffer (3×200 μL). and after blocking the wells with 5% milk in PBS-Tween (100 μL) for 1 hr, the cells are incubated with anti-human ICAM-1 antibody (50 μL) (Cell Signaling Technology, Danvers, Mass.) in 1% BSA PBS overnight at 4° C.
The cells are washed with PBS-Tween (3×200 μL) and incubated with the secondary antibody (100 μL) (HRP-conjugated anti-rabbit IgG, Dako Ltd., Glostrup, Denmark). The cells are then incubated with of substrate (50 μL) for 2-20 min, followed by the addition of stop solution (50 μL, 1N H2SO4). The ICAM-1 signal is detected by reading and reading the absorbance at 450 nm against a reference wavelength of 655 nm using a spectrophotometer. The cells are then washed with PBS-Tween (3×200 μL) and total cell numbers in each well are determined by reading absorbance at 595 nm after Crystal Violet staining (50 μL of a 2% solution in PBS) and elution by 1% SDS solution (100 μL) in distilled water. The measured OD 450-655 readings are corrected for cell number by dividing with the OD595 reading in each well.

[8] = test system: d-U937 cells; assay: Cell viability: MTT assay; assay type: cell-based, human; conditions: 1 μg/mL
Experimental: Differentiated U937 cells are pre-incubated with each test compound (final concentration 1 μg/mL or 10 μg/mL in 200 μL media indicated below) under two protocols: the first for 4 hr in 5% FCS RPMI1640 media and the second in 10% FCS RPMI1640 media for 24 h. The supernatant is replaced with new media (200 μL) and MTT stock solution (10 μL, 5 mg/mL) is added to each well. After incubation for 1 hr the media are removed, DMSO (200 μL) is added to each well and the plates are shaken lightly for 1 hr prior to reading the absorbance at 550 nm. The percentage loss of cell viability is calculated for each well relative to vehicle (0.5% DMSO) treatment. Consequently an apparent increase in cell viability for drug treatment relative to vehicle is tabulated as a negative percentage.

Sequence of p38 MAPKα (Q16539 whole entry): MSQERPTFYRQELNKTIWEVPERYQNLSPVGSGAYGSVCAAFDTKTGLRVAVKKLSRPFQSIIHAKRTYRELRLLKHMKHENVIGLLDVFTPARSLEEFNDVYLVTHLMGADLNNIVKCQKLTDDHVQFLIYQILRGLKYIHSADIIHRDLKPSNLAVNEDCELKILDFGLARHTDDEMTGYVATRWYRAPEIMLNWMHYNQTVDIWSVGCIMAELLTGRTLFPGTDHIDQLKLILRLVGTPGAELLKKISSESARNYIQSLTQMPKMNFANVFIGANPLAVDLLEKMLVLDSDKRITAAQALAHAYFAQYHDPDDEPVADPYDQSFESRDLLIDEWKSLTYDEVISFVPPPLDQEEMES

Row | SMILES | pIC50 [1] | pIC50 [2] | pIC50 [3] | pIC50 [4] | pEC50 [5] | pIC50 [6] | pIC50 [7] | MTT Assay Cell viability at time point in d-U937 cells 4 h [8] | MTT Assay Cell viability at time point in d-U937 cells 24 h [8]
1 | Cc1ccc(-n2nc(C(C)(C)C)cc2NC(=O)Nc2ccc(Oc3ccnc(Nc4cc(C)c5[nH]ncc5c4)n3)c3ccccc23)cc1 [Example 27, 1-(3-(tert-butyl)-1-(p-tolyl)-1H-pyrazol-5-yl)-3-(4-((2-((7-methyl-1H-indazol-5-yl)amino)pyrimidin-4-yl)oxy)naphthalen-1-yl)urea] | 6.58 | 7.96 | 7.77 | < 5.80 | 8.70 | 9.15 | 8.62 | −ve (−ve and +ve indicate that the value is below and above respectively, the no significant effect threshold, defined as 30% inhibition at 1 μg/mL at the time point indicated.) | −ve (−ve and +ve indicate that the value is below and above respectively, the no significant effect threshold, defined as 30% inhibition at 1 μg/mL at the time point indicated.)
2 | COc1ccc(-n2nc(C(C)(C)C)cc2NC(=O)Nc2ccc(Oc3ccnc(Nc4ccc5[nH]nc(C(=O)N(C)C)c5c4)n3)c3ccccc23)cc1 [Example 47, 5-((4-((4-(3-(3-(tert-butyl)-1-(4-methoxyphenyl)-1H-pyrazol-5-yl)ureido)naphthalen-1-yl)oxy)pyrimidin-2-yl)amino)-N,N-dimethyl-1H-indazole-3-carboxamide] | 7.49 | > 9.00 | 8.30 | 6.33 | 9.05 | 8.48 | 9.30 | −ve (−ve and +ve indicate that the value is below and above respectively, the no significant effect threshold, defined as 30% inhibition at 1 μg/mL at the time point indicated.) | −ve (−ve and +ve indicate that the value is below and above respectively, the no significant effect threshold, defined as 30% inhibition at 1 μg/mL at the time point indicated.)
3 | CC(C)(C)c1cc(NC(=O)Nc2ccc(Oc3ccnc(Nc4ccc5scnc5c4)n3)c3ccccc23)n(-c2ccc(OCCN3CCOCC3)cc2)n1 [Example 79, 1-(4-((2-(benzo[d]thiazol-5-ylamino)pyrimidin-4-yl)oxy)naphthalen-1-yl)-3-(3-(tert-butyl)-1-(4-(2-morpholinoethoxy)phenyl)-1H-pyrazol-5-yl)urea] | 6.83 | 8.10 | 7.44 | 6.14 | 7.98 | 7.91 | 8.15 | −ve (−ve and +ve indicate that the value is below and above respectively, the no significant effect threshold, defined as 30% inhibition at 1 μg/mL at the time point indicated.) | −ve (−ve and +ve indicate that the value is below and above respectively, the no significant effect threshold, defined as 30% inhibition at 1 μg/mL at the time point indicated.)
4 | CC(C)(C)c1cc(NC(=O)Nc2ccc(Oc3ccnc(Nc4ccc5[nH]ncc5c4)c3)c3ccccc23)n(-c2ccc(OCCN3CCOCC3)cc2)n1 [Example 67] | 8.30 | > 9.00 | > 9.00 | 5.52 | 8.82 | 9.52 | 8.60 | −ve (−ve and +ve indicate that the value is below and above respectively, the no significant effect threshold, defined as 30% inhibition at 1 μg/mL at the time point indicated.) | −ve (−ve and +ve indicate that the value is below and above respectively, the no significant effect threshold, defined as 30% inhibition at 1 μg/mL at the time point indicated.)
5 | Cc1ccc(-n2nc(C(C)(C)C)cc2NC(=O)Nc2ccc(Oc3ccnc(Nc4cccc5cn[nH]c45)n3)c3ccccc23)cc1 [Example 25] | 6.28 | 7.34 | 6.12 | < 4.80 | 9.10 | 8.77 | 7.85 | −ve (−ve and +ve indicate that the value is below and above respectively, the no significant effect threshold, defined as 30% inhibition at 1 μg/mL at the time point indicated.) | −ve (−ve and +ve indicate that the value is below and above respectively, the no significant effect threshold, defined as 30% inhibition at 1 μg/mL at the time point indicated.)
6 | Cc1ccc(-n2nc(C(C)(C)C)cc2NC(=O)Nc2ccc(Oc3ccnc(Nc4ccc5c(c4)CC(=O)N5)n3)c3ccccc23)cc1 [Example 19, 1-(3-(tert-butyl)-1-(p-tolyl)-1H-pyrazol-5-yl)-3-(4-((2-((2-oxoindolin-5-yl)amino)pyrimidin-4-yl)oxy)naphthalen-1-yl)urea] | 7.92 | 8.15 | 7.49 | 6.00 | 8.74 | 8.72 | 8.62 | −ve (−ve and +ve indicate that the value is below and above respectively, the no significant effect threshold, defined as 30% inhibition at 1 μg/mL at the time point indicated.) | −ve (−ve and +ve indicate that the value is below and above respectively, the no significant effect threshold, defined as 30% inhibition at 1 μg/mL at the time point indicated.)
